Assay results from US9169224B2, “Piperazinyl and piperidinyl ureas as modulators of fatty acid amide hydrolase” (Janssen Pharmaceutica NV, priority 2004, dated 2015).

What was measured:
CREAE mice = settings: Baker 2001; cited from earlier work
FAAH [1] = target: T1, FAAH (Homo sapiens (Human), UniProt O00519); assay: Assay Method 1: FAAH assay, T84 cell homogenate, 3H-anandamide hydrolysis; type: biochemical; settings: 3H-AEA tracer 200 nM, 1 h at rt
Outline: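 Homogenate of human T84 cells in pH 9 Tris/EDTA buffer with 0.02% Triton X-100 was incubated with compound and 200 nM final 3H-anandamide for 1 h at rt. Released [3H]ethanolamine was separated from substrate through activated charcoal by centrifugation and quantified by scintillation counting.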

FAAH [2] = target: T1, FAAH; assay: Assay Method 2: FAAH assay, cells transfected with human FAAH; type: biochemical; settings: T84 or human FAAH-transfected SK-N-MC cell homogenate, 3H-AEA tracer 80 nM, 1 h at rt
Protocol: Assay Method 2 A. Transfection of Cells with Human FAAH
(§1) A 10-cm tissue culture dish with a confluent monolayer of SK-N-MC cells was split 2 days (d) prior to transfection. Using sterile technique, the media was removed and the cells were detached from the dish by the addition of trypsin. One fifth of the cells were then placed onto a new 10-cm dish. Cells were grown in a 37° C. incubator with 5% CO2 in Minimal Essential Media Eagle with 10% Fetal Bovine Serum. After 2 d, cells were approximately 80% confluent. These cells were removed from the dish with trypsin and pelleted in a clinical centrifuge. The pellet was re-suspended in 400 μL complete media and transferred to an electroporation cuvette with a 0.4 cm gap between the electrodes. Supercoiled human FAAH cDNA (1 pg) was added to the cells and mixed. The voltage for the electroporation was set at 0.25 kV, and the capacitance was set at 960 μF. After electroporation, the cells were diluted into complete media (10 mL) and plated onto four 10-cm dishes. Because of the variability in the efficiency of electroporation, four different concentrations of cells were plated. The ratios used were 1:20, 1:10, and 1:5, with the remainder of the cells being added to the fourth dish. The cells were allowed to recover for 24 h before adding the selection media (complete media with 600 μg/mL G418). After 10 d, dishes were analyzed for surviving colonies of cells. Dishes with well-isolated colonies were used. Cells from individual colonies were isolated and tested.
(§2) T84 frozen cell pellets or transfected SK-N-MC cells (contents of 1×15 cm culture dishes) were homogenized in 50 mL of FAAH assay buffer (125 mM Tris, 1 mM EDTA, 0.2% Glycerol, 0.02% Triton X-100, 0.4 mM Hepes, pH 9). The assay mixture consisted of 50 μL of the cell homogenate, 10 μL of the test compound, and 40 pt of anandamide [1-^3H-ethanolamine] (^3H-AEA, Perkin-Elmer, 10.3 Ci/mmol), which was added last, for a final tracer concentration of 80 nM. The reaction mixture was incubated at rt for 1 h. During the incubation, 96-well Multiscreen filter plates (catalog number MAFCNOB50; Millipore, Bedford, Mass., USA) were loaded with 25 μL of activated charcoal (Multiscreen column loader, catalog number MACL09625, Millipore) and washed once with 100 μL of MeOH. Also during the incubation, 96-well DYNEX MicroLite plates (catalog number NL510410) were loaded with 100 μL of MicroScint40 (catalog number 6013641, Packard Bioscience, Meriden, Conn., USA). After the 1 h incubation, 60 μL of the reaction mixture were transferred to the charcoal plates, which were then assembled on top of the DYNEX plates using Centrifuge Alignment Frames (catalog number MACF09604, Millipore). The unbound labeled ethanolamine was centrifuged through to the bottom plate (5 min at 2000 rpm), which was preloaded with the scintillant, as described above. The plates were sealed and left at rt for 1 h before counting on a Hewlett Packard TopCount.

rat FAAH = rat FAAH (Rattus norvegicus (Rat), UniProt P97612); assay: Assay Method 3: FAAH assay, cells transfected with rat FAAH; type: biochemical; settings: T84 or rat FAAH-transfected SK-N-MC cell homogenate, 3H-AEA tracer 80 nM, 1 h at rt
Protocol: Assay Method 3 A. Transfection of Cells with Rat FAAH
as §1, with “rat” for “human”, “μg)” for “pg)”
as §2, with “μL” for “pt”

FAAH [3] = target: T1, FAAH; settings: WO 04/033652; cited from earlier work
rats [4] = settings: WO 04/033652; cited from earlier work
rats [5] = settings: Kathuria 2003; cited from earlier work
rats [6] = settings: rat, Kathuria 2003; cited from earlier work

T1 sequence (O00519 whole entry): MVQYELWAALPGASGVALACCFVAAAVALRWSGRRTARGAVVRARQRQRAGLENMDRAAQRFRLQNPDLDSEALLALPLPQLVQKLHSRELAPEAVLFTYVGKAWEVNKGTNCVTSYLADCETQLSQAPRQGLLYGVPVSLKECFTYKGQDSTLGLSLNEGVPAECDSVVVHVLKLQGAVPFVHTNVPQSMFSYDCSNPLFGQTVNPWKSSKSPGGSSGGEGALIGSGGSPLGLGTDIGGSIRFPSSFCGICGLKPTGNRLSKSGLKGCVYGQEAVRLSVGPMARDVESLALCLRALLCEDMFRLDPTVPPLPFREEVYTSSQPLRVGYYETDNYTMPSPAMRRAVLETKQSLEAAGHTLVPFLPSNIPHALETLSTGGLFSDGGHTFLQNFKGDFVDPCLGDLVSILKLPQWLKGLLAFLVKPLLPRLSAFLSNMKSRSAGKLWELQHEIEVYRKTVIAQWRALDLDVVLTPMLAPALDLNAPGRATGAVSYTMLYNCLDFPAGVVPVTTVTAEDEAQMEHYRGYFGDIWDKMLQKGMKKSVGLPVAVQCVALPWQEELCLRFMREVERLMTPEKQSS
rat FAAH, sequence (P97612 whole entry): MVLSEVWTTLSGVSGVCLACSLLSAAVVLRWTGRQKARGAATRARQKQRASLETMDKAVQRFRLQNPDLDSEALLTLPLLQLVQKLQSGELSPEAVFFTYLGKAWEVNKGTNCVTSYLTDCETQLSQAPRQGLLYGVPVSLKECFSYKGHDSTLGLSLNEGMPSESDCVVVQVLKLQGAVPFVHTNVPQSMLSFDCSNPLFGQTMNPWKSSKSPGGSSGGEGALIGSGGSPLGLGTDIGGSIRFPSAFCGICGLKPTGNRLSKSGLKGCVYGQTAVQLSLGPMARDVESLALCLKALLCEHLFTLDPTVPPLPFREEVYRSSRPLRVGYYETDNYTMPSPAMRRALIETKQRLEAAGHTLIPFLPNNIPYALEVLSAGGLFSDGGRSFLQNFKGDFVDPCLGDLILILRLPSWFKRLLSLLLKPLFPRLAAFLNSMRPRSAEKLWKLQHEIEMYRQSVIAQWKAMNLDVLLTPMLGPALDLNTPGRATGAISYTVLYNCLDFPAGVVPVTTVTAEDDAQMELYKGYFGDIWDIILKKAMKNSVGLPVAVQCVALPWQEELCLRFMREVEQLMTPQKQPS

Structure (SMILES)	IC50 (FAAH [1])	IC50 (FAAH [2])	IC50 (rat FAAH)	other results
CCCCCCCCCCCCCCCCS(=O)(=O)F [AM374]	–	–	–	spasticity (CREAE mice): significantly reduce spasticity
O=C(Nc1ccccc1)N1CCN(Cc2ccc3ccccc3c2)CC1 [Example 18, 4-Naphthalen-2-ylmethyl-piperazine-1-carboxylic acid phenylamide]	0.017 µM	0.023 µM	0.265 µM	–
O=C(Nc1ccccc1)N1CCN(Cc2ccc(Br)c(Br)c2)CC1 [Example 21, 4-(3,4-Dibromo-benzyl)-piperazine-1-carboxylic acid phenylamide]	0.031 µM	0.019 µM	0.18 µM	–
CC(C)c1ccc(CN2CCN(C(=O)Nc3ccccc3)CC2)cc1 [Example 32, 4-(4-Isopropyl-benzyl)-piperazine-1-carboxylic acid phenylamide]	0.22 µM	0.38 µM	10 µM	–
O=C(Nc1ccccc1)N1CCN(Cc2cc(Br)ccc2O)CC1 [Example 34, 4-(5-Bromo-2-hydroxy-benzyl)-piperazine-1-carboxylic acid phenylamide]	0.29 µM	0.33 µM	0.41 µM	–
O=C(Nc1ccccc1)N1CCN(Cc2ccccc2O)CC1 [Example 41, 4-(2-Hydroxy-benzyl)-piperazine-1-carboxylic acid phenylamide]	1.3 µM	3 µM	10 µM	–
O=C(Nc1ccccc1)N1CCN(Cc2ccc3c(c2)OC(F)(F)O3)CC1 [Example 52, 4-(2,2-Difluoro-benzo[1,3]dioxol-5-ylmethyl)-piperazine-1-carboxylic acid phenylamide]	0.087 µM	0.1 µM	0.29 µM	–
O=C(Nc1ccccc1)N1CCN(Cc2ccc3ccccc3c2O)CC1 [Example 59, 4-(1-Hydroxy-naphthalen-2-ylmethyl)-piperazine-1-carboxylic acid phenylamide]	0.021 µM	0.016 µM	0.05 µM	–
O=C(Nc1ccc(F)cc1)N1CCN(Cc2cnc3ccccc3c2)CC1 [Example 98, 4-Quinolin-3-ylmethyl-piperazine-1-carboxylic acid (4-fluoro-phenyl)-amide]	0.13 µM	0.22 µM	6.5 µM	–
O=C(Nc1ccccn1)N1CCN(Cc2ccc3c(c2)OCO3)CC1 [Example 149, 4-Benzo[1,3]dioxol-5-ylmethyl-piperazine-1-carboxylic acid pyridin-2-ylamide]	–	4 µM	10 µM	–
O=C(Nc1ccncc1)N1CCN(Cc2ccc3c(c2)OC(F)(F)O3)CC1 [Example 151, 4-(2,2-Difluoro-benzo[1,3]dioxol-5-ylmethyl)-piperazine-1-carboxylic acid pyridin-4-ylamide]	–	1.7 µM	2 µM	–
O=C(Nc1ccncn1)N1CCN(Cc2cnc3ccccc3c2)CC1 [Example 152, 4-Quinolin-3-ylmethyl-piperazine-1-carboxylic acid pyrimidin-4-ylamide]	–	4 µM	10 µM	–
O=C(Nc1ccncn1)N1CCN(Cc2ccc3c(c2)OC(F)(F)O3)CC1 [Example 153, 4-(2,2-Difluoro-benzo[1,3]dioxol-5-ylmethyl)-piperazine-1-carboxylic acid pyrimidin-4-ylamide]	–	1 µM	60 µM	–
O=C(Nc1ccncn1)N1CCN(Cc2ccc(Br)c(Br)c2)CC1 [Example 154, 4-(3,4-Dibromo-benzyl)-piperazine-1-carboxylic acid pyrimidin-4-ylamide]	–	0.282 µM	2 µM	–
O=C(O)c1ccc(NC(=O)N2CCN(Cc3cnc4ccccc4c3)CC2)cc1 [Example 155, 4-[(4-Quinolin-3-ylmethyl-piperazine-1-carbonyl)-amino]-benzoic acid]	–	8 µM	10 µM	–
O=C(Nc1ccccc1)N1CCN(Cc2cnc3ccccc3n2)CC1 [Example 156, 4-Quinoxalin-2-ylmethyl-piperazine-1-carboxylic acid phenylamide]	–	0.84 µM	8 µM	–
O=C(Nc1ccccc1)N1CCN(Cc2ccc(Cl)c(Cl)c2)CC1 [Example 157, 4-(3,4-Dichloro-benzyl)-piperazine-1-carboxylic acid phenylamide]	–	0.065 µM	0.35 µM	–
O=C(Nc1nccs1)N1CCN(Cc2cnc3ccccc3c2)CC1 [Example 158, 4-Quinolin-3-ylmethyl-piperazine-1-carboxylic acid thiazol-2-ylamide]	–	> 10 µM	10 µM	–
CN(C(=O)N1CCN(Cc2ccc(Br)c(Br)c2)CC1)c1ccccc1 [Example 160, 4-(3,4-Dibromo-benzyl)-piperazine-1-carboxylic acid methyl-phenyl-amide]	–	> 10 µM	10 µM	–
O=C(CCCCCCc1ccccc1)c1ncc(-c2ccccn2)o1 [OL-135]	–	–	–	inhibition of FAAH (FAAH [3]): potent inhibitor of FAAH; analgesic activity (rats [4]): analgesic activity
NC(=O)c1cccc(-c2cccc(OC(=O)NC3CCCCC3)c2)c1 [URB-597]	–	–	–	efficacy in anxiety model (rats [5]): efficacy; analgesic efficacy (rats [6]): analgesic efficacy
